Test results: patent US20160046570A1, “N-ACYLOXYSULFONAMIDE AND N-HYDROXY-N-ACYLSULFONAMIDE DERIVATIVES” (The Johns Hopkins University, priority 2009, published 2016)

Experiments:
[1] = tested on: esterase; assay: HNO production via N2O quantification (GC headspace), PBS buffer pH 7.4 with added esterase; format: in vitro ADME; conditions: pH 7.4 with 2-4 mg added esterase, 37° C. under argon, relative to Angeli's salt, N2O measured at 1 hr
Experimental: (§1) Nitrous oxide is produced via the dimerization and dehydration of HNO, and is the most common marker for HNO production (Fukuto, J. M. et al., Chem. Res. Toxicol. 2005, 18, 790-801).
(§2) The ability of compounds to donate HNO is assessed. N2O results are reported relative to Angeli's salt. All decompositions are carried out at 37° C. under argon.

[2] = HNO production via N2O quantification (GC headspace), PBS buffer pH 7.4; format: physicochemical; conditions: pH 7.4, 37° C. under argon, relative to Angeli's salt
Experimental: as §1, §2

SMILES | % N2O esterase [1] | % N2O pH 7.4 ([2]; N2O measured at 5 hr) | % N2O pH 7.4 ([2]; no measurement time printed)
CC(=O)ONS(=O)(=O)c1ccccc1Br [Compound 2, N-(acetyloxy)-2-bromobenzenesulfonamide] | 53 (1 hr) % | <3 (5 hr) % | 
CC(=O)ONS(=O)(=O)c1c(Cl)cccc1Cl [Compound 3, N-acetyloxy-2,6-dichlorobenzenesulfonamide] | 56 (1 hr) % | <3 (5 hr) % | 
O=C(c1ccccc1)N(O)S(=O)(=O)c1ccccc1 [Compound 15, N-hydroxy-N-benzoyl- benzenesulfonamide] |  |  | 19%
CC(C)(C)C(=O)N(O)S(=O)(=O)c1c(Cl)cccc1Cl [Compound 16, N-hydroxy-N-trimethylacetyl-2,6-dichlorobenzenesulfonamide] |  |  | 41%
